Results from the supplement of paper PMC10307832.

Key:
Assay in all cases: relative viability (nuclei count vs DMSO), 5 days (fraction); higher = more cells survive
Carfilzomib + Pictilisib = compound: CC(C)C[C@H](NC(=O)[C@H](CCc1ccccc1)NC(=O)CN1CCOCC1)C(=O)N[C@@H](Cc1ccccc1)C(=O)N[C@@H](CC(C)C)C(=O)[C@@]1(C)CO1 [Carfilzomib] + CS(=O)(=O)N1CCN(Cc2cc3nc(-c4cccc5[nH]ncc45)nc(N4CCOCC4)c3s2)CC1 [Pictilisib] (partner 1 µM)
Outline: (§1)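 For relative viability, nuclei counts in treated wells were divided by those in vehicle wells. Lung cancer cell lines had been pin-tool dosed in 1536-well plates the day after seeding and cultured for 5 days, then fixed and stained in one step (final 0.05% Triton X-100, 1% formaldehyde, 1 ug/ml Hoechst) and imaged at 4×. Doses were one drug alone or a fixed anchor-drug dose plus five library-drug doses (not always all listed) in √10 steps, and values are duplicate-plate medians.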

Crizotinib + Decitabine = compound: C[C@@H](Oc1cc(-c2cnn(C3CCNCC3)c2)cnc1N)c1c(Cl)ccc(F)c1Cl [Crizotinib] + Nc1ncn([C@H]2C[C@H](O)[C@@H](CO)O2)c(=O)n1 [Decitabine] (partner 2 µM)
Outline: as §1

Crizotinib + Bortezomib = compound: C[C@@H](Oc1cc(-c2cnn(C3CCNCC3)c2)cnc1N)c1c(Cl)ccc(F)c1Cl [Crizotinib] + CC(C)C[C@H](NC(=O)[C@H](Cc1ccccc1)NC(=O)c1cnccn1)B(O)O [Bortezomib] (partner 0.002 µM)
Outline: as §1

[1] = compound: CC(C)C[C@H](NC(=O)[C@H](CCc1ccccc1)NC(=O)CN1CCOCC1)C(=O)N[C@@H](Cc1ccccc1)C(=O)N[C@@H](CC(C)C)C(=O)[C@@]1(C)CO1 [Carfilzomib] + CC(=O)c1c(C)c2cnc(Nc3ccc(N4CCNCC4)cn3)nc2n(C2CCCC2)c1=O [Palbociclib] (partner 0.5 µM)
Outline: as §1

Row | Cell Line | relative viability (Carfilzomib + Pictilisib; first compound 0.001 µM) | relative viability (Carfilzomib + Pictilisib; first compound 0.003162 µM) | relative viability (Carfilzomib + Pictilisib; first compound 0.01 µM) | relative viability (Carfilzomib + Pictilisib; first compound 0.03162 µM) | relative viability (Carfilzomib + Pictilisib; first compound 0.1 µM) | relative viability (Crizotinib + Decitabine; first compound 0.01 µM) | relative viability (Crizotinib + Decitabine; first compound 0.03162 µM) | relative viability (Crizotinib + Decitabine; first compound 0.1 µM) | relative viability (Crizotinib + Decitabine; first compound 0.3162 µM) | relative viability (Crizotinib + Decitabine; first compound 1 µM) | relative viability (Crizotinib + Bortezomib; first compound 0.01 µM) | relative viability (Crizotinib + Bortezomib; first compound 0.03162 µM) | relative viability (Crizotinib + Bortezomib; first compound 0.1 µM) | relative viability (Crizotinib + Bortezomib; first compound 1 µM) | relative viability ([1]; first compound 0.001 µM) | relative viability ([1]; first compound 0.003162 µM) | relative viability ([1]; first compound 0.01 µM) | relative viability ([1]; first compound 0.03162 µM) | relative viability ([1]; first compound 0.1 µM) | relative viability (Crizotinib + Bortezomib; first compound 0.3162 µM)
1 | NCI-H441 | 0.486 | 0.569 | 0.144 | 0.105 | 0.141 | 0.242 | 0.238 | 0.248 | 0.23 | 0.244 | 0.689 | 0.419 | 0.764 | 0.355 | 0.217 | 0.219 | 0.178 | 0.0969 | 0.155 | –
2 | NCI-H460 | 0.438 | 0.376 | 0.381 | 0.0673 | 0.0409 | 0.451 | 0.511 | 0.476 | 0.645 | 0.452 | 1.08 | 1.07 | 1.01 | 1.1 | 0.125 | 0.225 | 0.0809 | 0.0983 | 0.0171 | 1.2
3 | NCI-H520 | 0.263 | 0.246 | 0.222 | 0.176 | 0.186 | 0.474 | 0.47 | 0.496 | 0.533 | 0.482 | 0.492 | 0.5 | 0.586 | 0.331 | 0.187 | 0.217 | 0.162 | 0.133 | 0.144 | 0.522
4 | NCI-H647 | – | 0.562 | 0.397 | 0.0769 | 0.036 | 0.396 | 0.382 | 0.262 | 0.508 | 0.448 | 0.638 | 1.01 | 0.827 | 0.943 | 0.458 | 0.45 | 0.306 | 0.0189 | 0.0185 | 0.94
